Patent US9359445B2, “Compositions and methods for treating neurological disorders” (The J. David Gladstone Institutes, priority 2010, dated 2016)
Entries after “also recorded” stand apart in the source; their conditions may differ.

Assays:
PKD1 = PKD1 phosphorylation (activation) in stimulated mouse cortical neurons, western blot; type: cell-based; settings: for effect on glutamate-induced PKD1 phosphorylation: antagonist applied with glutamate; for PKD1 phosphorylation at activation loop (S744/8) and autophosphorylation (S916) sites after stimulation: mouse cortical cultures, substance applied alone, 10 min
Venus-PKD1 = Venus-PKD1 translocation to dendritic puncta (puncta index) in transfected neurons; type: cell-based, mouse; settings: for effect on glutamate-induced Venus-PKD1 puncta formation: drug applied with glutamate; for Venus-PKD1 translocation / puncta formation induced by the substance: substance applied alone, glutamate 30 μM, ACPD 500 μM, K+ 55 mM in the presence of APV
pH-GluR2 = assay: pHluorin GluR2 recycling assay in mouse cortical neurons; type: cell-based
Source text: Rat GluR2 tagged with superecliptic pHluorin was cloned into pGW1 mammalian expression vector. mCherry was subcloned to replace enhanced green fluorescent protein (EGFP) in FUGW PKD1 shRNA and control vectors. mCherry served as a morphology marker to monitor the overall health of the cell. pHluorin-GluR2 and PKD1 shRNA or mutant control were transfected into mouse cortical neurons with Lipofectamine 2000 (Invitrogen). At 12 DIV, neurons were imaged on a Zeiss LSM 510 confocal microscope with a 40× water immersion lens in HBS as described above, only nimodipine was excluded. After 20 min of baseline imaging, 30 μM glutamate and 10 μM glycine were washed on to cells by gravity flow perfusion for 5 min, followed by washout with control HBS solution. Images were collected every 5 min. Average pixel intensity of pH-GluR2 in the cell body was calculated in MetaMorph, and background was measured in a cell-free region of the image and subtracted from fluorescence intensities before further calculations. Fractional change in fluorescent intensity (ΔF/F0) was calculated as Ft−F0/F0, where Ft is pHGluR2 intensity at time t and F0 is the average pH-GluR2 fluorescence intensity at four points before glutamate application.

| Molecule | effect on glutamate-induced Venus-PKD1 puncta formation (Venus-PKD1) | PKD1 phosphorylation at activation loop (S744/8) and autophosphorylation (S916) sites after stimulation (PKD1; glutamate 30 μM) | also measured |
| --- | --- | --- | --- |
| NC(CCCP(=O)(O)O)C(=O)O (racemic) [APV, D,L-2-amino-5-phosphonovaleric acid] | blocked | – | effect on glutamate-induced PKD1 phosphorylation (PKD1): did not block phosphorylation |
| N[C@@]1(C(=O)O)CC[C@@H](C(=O)O)C1 [ACPD, (1S,3R)-1-aminocyclopentane-1,3-dicarboxylic acid] | – | induced phosphorylation | Venus-PKD1 translocation / puncta formation induced by the substance (Venus-PKD1): did not induce translocation |
| N[C@H](C(=O)O)c1cc(O)cc(O)c1 [DHPG, (S)-3,5-dihydroxyphenylglycine] | – | induced phosphorylation | – |
| CN(C)CCCn1cc(C2=C(c3c[nH]c4ccccc34)C(=O)NC2=O)c2ccccc21 [GF109203X] | had no effect | – | effect on glutamate-induced Venus-PKD1 puncta formation (Venus-PKD1; listed as GF 109203×): did not prevent PKD1 translocation |
| Cn1c2ccccc2c2c3c(c4c5ccccc5n(CCC#N)c4c21)CNC3=O [Gö6976] | had no effect | – | – |
| COc1ccc2c(c1)c(C1=C(c3c[nH]c4ccccc34)C(=O)NC1=O)cn2CCCN(C)C [Gö6983] | did not prevent PKD1 translocation; also recorded: had no effect | – | – |
| CC(N)(C(=O)O)c1ccc(C(=O)O)cc1 (stereo not drawn) [MCPG, alpha-methyl-4-carboxyphenylglycine] | unaffected | – | effect on glutamate-induced PKD1 phosphorylation (PKD1): reduced glutamate-induced PKD1 phosphorylation |
| CN[C@H](CC(=O)O)C(=O)O [NMDA, N-methyl-D-aspartate] | – | did not stimulate autophosphorylation | Venus-PKD1 translocation / puncta formation induced by the substance (Venus-PKD1): puncta formation was induced |
| COc1ccc2c(c1)CC[C@@H]1[C@@H]2CC[C@]2(C)[C@@H](NCCCCCCN3C(=O)C=CC3=O)CC[C@@H]12 [U73122] | blocked glutamate-induced puncta formation; also recorded: blocks puncta formation | – | – |
| glutamate | – | rapidly and robustly phosphorylated | pH-GluR2 fluorescence intensity (pH-GluR2; after 5 minutes of glutamate application): ~80 % of baseline; pH-GluR2 fluorescence recovery (pH-GluR2; fifty-five minutes after glutamate stimulation, neurons with endogenous PKD1): > 90 % of baseline; pH-GluR2 fluorescence intensity at maximal endocytosis (pH-GluR2; immediately after glutamate stimulation): 20 % of baseline; duration of glutamate-induced PKD1 phosphorylation (PKD1; glutamate 30 μM, time of stimulation): up to 60 min; Venus-PKD1 translocation / puncta formation induced by the substance (Venus-PKD1): translocated to discrete puncta throughout the dendrites |
| BDNF: brain-derived neurotophic factor, activates TrkB receptors (protein, UniProt P23560 19-247, looked up) Neurotrophic factor BDNF …: APMKEANIRGQGGLAYPGVRTHGTLESVNGPKAGSRGLTSLADTFEHVIEELLDEDQKVRPNEENNKDADLYTSRVMLSSQVPLEPPLLFLLEEYKNYLDAANMSMRVRRHSDPARRGELSVCDSISEWVTAADKKTAVDMSGGTVTVLEKVPVSKGQLKQYFYETKCNPMGYTKEGCRGIDKRHWNSQCRTTQSYVRALTMDSKKRIGWRFIRIDTSCVCTLTIKRGR | – | did not activate PKD1 | – |
